Measured values from article PMC7582767, “Protective Effect of CXCR4 Antagonist CX807 in a Rat Model of Hemorrhagic Stroke” (International Journal of Molecular Sciences, 2020).

Biological target: T1, CXCR4 (C-X-C chemokine receptor type 4) (Homo sapiens, UniProt P61073)
T1 construct: purified membrane fractions of HEK293 cells overexpressing CXCR4
Assay: […]CXCL12 radioligand displacement on CXCR4 membranes
Assay type: binding

T1 sequence (P61073 whole entry): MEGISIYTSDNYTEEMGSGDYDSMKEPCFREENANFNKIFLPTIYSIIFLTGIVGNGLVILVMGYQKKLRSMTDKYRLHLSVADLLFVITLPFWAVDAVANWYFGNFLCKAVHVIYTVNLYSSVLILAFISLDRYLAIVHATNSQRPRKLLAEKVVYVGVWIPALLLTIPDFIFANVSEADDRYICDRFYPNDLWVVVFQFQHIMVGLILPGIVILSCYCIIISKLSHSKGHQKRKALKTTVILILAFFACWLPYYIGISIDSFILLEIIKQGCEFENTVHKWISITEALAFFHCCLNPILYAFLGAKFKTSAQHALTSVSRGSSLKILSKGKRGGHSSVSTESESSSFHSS

- IC50: 65.4 ± 11.8 nM
SMILES: Cc1cc(NC2CCN(C(=O)CCNCC(=O)O)CC2)nc(NCc2nc(CCCNCCCNC3CCCCC3)co2)n1 [CX807]
